Results reported in US20140243414A1, “PHARMACEUTICAL COMPOSITIONS OF CETP INHIBITORS” (Japan Tobacco Inc., priority 2003, published 2014).
Read-outs that look alike come from different tables or passages of the source.

Tests used:
[1] = Solubility in water; assay type: physicochemical
[2] = molecular target: T1, CETP (Homo sapiens, UniProt P11597); test: CETP activity change from pre-dose after single oral doses, Caucasian males (Example 5); assay type: in vivo; settings: for change in vivo at 100 mg: 100 mg with food; for change in vivo at 100 mg / change in vivo at 300 mg / change in vivo at 600 mg / change in vivo at 900 mg / change in vivo at 1200 mg / change in vivo at 1500 mg / change in vivo at 1800 mg: read-out: Percent change from pre-dose in CETP activity (mean); for change in vivo at 300 mg: 300 mg with food; for Decrease in CETP activity relative to pre-dose: 6 hours after administration; for change in vivo at 600 mg: 600 mg with food; for change in vivo at 900 mg: 900 mg with food; for change in vivo at 1200 mg: 1200 mg with food; for change in vivo at 1500 mg: 1500 mg with food; for change in vivo at 1800 mg: 1800 mg with food
T1 construct: from tissue; host or cells: blood / plasma of human subjects dosed orally with Compound I
T1 sequence (P11597 18-493): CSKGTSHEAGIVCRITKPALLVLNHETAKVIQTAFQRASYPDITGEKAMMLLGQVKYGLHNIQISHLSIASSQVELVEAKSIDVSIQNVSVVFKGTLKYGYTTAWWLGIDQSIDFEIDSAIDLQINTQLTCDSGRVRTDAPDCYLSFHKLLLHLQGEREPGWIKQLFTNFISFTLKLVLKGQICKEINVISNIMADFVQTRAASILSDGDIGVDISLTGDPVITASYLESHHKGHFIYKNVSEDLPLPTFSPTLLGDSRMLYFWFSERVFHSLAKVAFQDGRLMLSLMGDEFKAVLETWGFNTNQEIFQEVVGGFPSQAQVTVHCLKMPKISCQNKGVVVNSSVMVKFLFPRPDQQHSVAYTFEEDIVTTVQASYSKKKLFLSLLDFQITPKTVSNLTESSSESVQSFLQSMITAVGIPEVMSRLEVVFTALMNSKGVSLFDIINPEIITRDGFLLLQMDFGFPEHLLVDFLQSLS
Experimental: Administration, dosing, and sampling schedules were substantially similar to those described in Example 1. The tablets were prepared as described in Example 1.
The procedure for determining CETP activity was substantially similar to the procedures described in Tollefson et al., Methods Enzymol., 129, 797-816 (1986), and Kato et al., J. Biol. Chem., 264, 4082-4087 (1989).
CETP activity and changes from baseline (pre-dose) were measured, and the resulting data is summarized in Table 6 as percentage change from baseline.

[3] = molecular target: T1, CETP; test: CETP activity after 4 weeks daily treatment, healthy volunteers (Example 9); assay type: in vivo; settings: for Absolute change in CETP activity: 4 weeks treatment, mean ± SD; for Decrease in CETP activity relative to baseline: 4 weeks
Experimental: Each patient took three tablets after breakfast each day for 4 weeks. Patients either took three placebo tablets (placebo); one 300 mg tablet and two placebo tablets (low dose); two 300 mg tablets and one placebo tablet (medium dose); or three 300 mg tablets (high dose). Tablet preparation was as described as in Example 1.
The testing period consisted of (a) a run-in period of 4 weeks, followed by (b) 4 weeks of treatment, and (c) 4 weeks of monitoring. Blood samples were drawn after an overnight fast. […] HDL-C was determined with a heparin MnCl2 precipitation reagent and LDL-C was calculated by the Friedewald formula (see, de Grooth et al., supra). CETP activity was measured as described in Example 5.
Table 11 describes the absolute changes in the assayed properties after 4 weeks of treatment.

[4] = Plasma pharmacokinetics of the active form of Compound I, single oral doses after standard breakfast, Japanese males (Example 3); assay type: in vivo, human; settings: Examples 1-4
Experimental: Administration, dosing, and sampling schedules were commensurate with those described in Example 1. The tablets were prepared as described in Example 1.

## CCC(CC)CC1(C(=O)Nc2ccccc2SC(=O)C(C)C)CCCCC1 [Compound I, S-[2-([[1-(2-ethylbutyl)cyclohexyl]carbonyl]amino)phenyl]2-methylpropanethioate]
[1]
  solubility: < 0.1 µg/mL
[2]; 1 h
  change in vivo at 100 mg: -2%
  change in vivo at 300 mg: 0%
  change in vivo at 600 mg: -3%
  change in vivo at 900 mg: -3%
  change in vivo at 1200 mg: -3%
  change in vivo at 1500 mg: -3%
  change in vivo at 1800 mg: -3%
[2]; 2 h
  change in vivo at 100 mg: -2%
  change in vivo at 300 mg: -7%
  change in vivo at 600 mg: -12%
  change in vivo at 900 mg: -23%
  change in vivo at 1200 mg: -17%
  change in vivo at 1500 mg: -32%
  change in vivo at 1800 mg: -23%
[2]; 4 h
  change in vivo at 100 mg: -5%
  change in vivo at 300 mg: -12%
  change in vivo at 600 mg: -29%
  change in vivo at 900 mg: -48%
  change in vivo at 1200 mg: -58%
  change in vivo at 1500 mg: -72%
  change in vivo at 1800 mg: -67%
[2]; 6 h
  change in vivo at 100 mg: -7%
  change in vivo at 300 mg: -13%
  change in vivo at 600 mg: -36%
  change in vivo at 900 mg: -55%
  change in vivo at 1200 mg: -71%
  change in vivo at 1500 mg: -83%
  change in vivo at 1800 mg: -74%
[2]; 8 h
  change in vivo at 100 mg: -6%
  change in vivo at 300 mg: -13%
  change in vivo at 600 mg: -36%
  change in vivo at 900 mg: -53%
  change in vivo at 1200 mg: -70%
  change in vivo at 1500 mg: -81%
  change in vivo at 1800 mg: -71%
[2]; 24 h
  change in vivo at 100 mg: -1%
  change in vivo at 300 mg: -6%
  change in vivo at 600 mg: -21%
  change in vivo at 900 mg: -28%
  change in vivo at 1200 mg: -43%
  change in vivo at 1500 mg: -48%
  change in vivo at 1800 mg: -42%
[2]; post-study
  change in vivo at 100 mg: -5%
  change in vivo at 300 mg: 2%
  change in vivo at 600 mg: -6%
  change in vivo at 900 mg: -5%
  change in vivo at 1200 mg: -4%
  change in vivo at 1500 mg: 0%
  change in vivo at 1800 mg: -5%
[2]; 300 mg
  Decrease in CETP activity relative to pre-dose: 13%
[2]; 600 mg
  Decrease in CETP activity relative to pre-dose: 36%
[2]; 900 mg
  Decrease in CETP activity relative to pre-dose: 55%
[3]; 300 mg per day after breakfast
  Absolute change in CETP activity: −15.4 ± 11.9 % of control
[3]; 300 mg per day with food
  Decrease in CETP activity relative to baseline: about 17%
[3]; 600 mg per day after breakfast
  Absolute change in CETP activity: −29.6 ± 19.5 % of control
[3]; 600 mg per day with food
  Decrease in CETP activity relative to baseline: about 33%
[3]; 900 mg per day after breakfast
  Absolute change in CETP activity: −37.2 ± 17.6 % of control
[3]; 900 mg per day with food
  Decrease in CETP activity relative to baseline: about 39%
[4]
  Bioavailability (as indicated by Cmax, AUC0-tz, AUC0-∞) in Oriental (especially Japanese) humans as compared to Caucasian humans: greater
